Test results published in patent US8163718B2, “Nucleoside analogues containing phosphonate or phosphonamide groups” (Gilead Sciences, Inc., priority 2008, dated 2012).

Experiments:
Test in all cases: Cytostatic cell culture assay (GI50), SRB
Format in all cases: cell-based
Conditions in all cases: 5 days incubation
[1] = system: A549
Text: (§1) The assay is based on quantification of cell counts by a colorimetric detection of the cell associated proteins. The assay relies on the ability of sulforhodamine B (SRB) to bind to protein components of cells that have been fixed to tissue-culture plates by trichloroacetic acid (TCA). SRB is a bright-pink aminoxanthene dye with two sulfonic groups that bind to basic amino-acid residues under mild acidic conditions, and dissociate under basic conditions. As the binding of SRB is stoichiometric, the amount of dye extracted from stained cells is directly proportional to the cell mass.
(§2) Cell lines: All cell lines were obtained from ATCC (Manassas, Va.). Cultivation media containing Glutamax, and trypsin were purchased from Invitrogen (Carlsbad, Calif.). Doxorubicin, Clofarabine, TCA and SRB were from Sigma-Aldrich (St. Louis, Mo.). Gemcitabine was obtained from Moravek Biochemicals (Brea, Calif.)
(§3) • 1. Trypsinize the sub-confluent cells, count them, and adjust the cell concentrations according to the cell counts listed in Table 1. • 2. Distribute the cells into the 96-well plates in 150 μL of media. Incubate the plates overnight in humidified CO2 incubator at 37° C. • 3. Fix one plate of each cell line with TCA. Discard the cultivation media from the plates by flicking them gently and add 100 ul cold 10% (vol/vol) TCA to each well. Incubate the plates at 4 degree refrigerator for 1 hour. Discard TCA from the plates by flicking them gently. Rinse plates four times in a washing basin containing tap water. Store the plates at room temperature. These plates represent cell counts on day zero. • 4. Prepare a set of medium solutions containing various concentrations of tested compounds by making 5-fold serial dilutions in 96-well plate. Add 50 μL of the diluted compounds per well. Include controls with untreated cells and cells treated with doxorubicin, clofarabine and gemcitabine. • 5. Incubate the plates for 5 days at 37° C. • 6. Fix the plates with TCA. Discard the cultivation media from the plates by flicking them gently and add 100 ul cold 10% (vol/vol) TCA to each well. Incubate the plates at 4 degree refrigerator for 1 hour. Discard TCA from the plates by flicking them gently. Rinse plates four times in a washing basin containing tap water. • 7. Remove excess water by tapping the plates face down, gently on a paper towel. Allow the plates to air-dry at room temperature. • 8. Add 100 ul of 0.057% SRB solution in 1% (vol/vol) acetic acid to each well of the plates fixed with TCA on day zero and five. Leave at room temperature for 30 minutes. • 9. Flick the plates gently to discard SRB. Rinse the plates four times with 1% (vol/vol) Acetic Acid. • 10. Store the plates at 37 degree incubator to facilitate faster drying. • 11. Once the plates are completely dry, add 200 ul of 10 mM Tris base solution (pH 10.5) to each well. Leave at room temperature for 30 minutes for SRB to solubilize. • 12. Measure the OD at 500 nm in a microplate reader • 13. Calculate the percentage of cell-growth inhibition using the next formula: % of control cell growth=100×(ODsample−mean ODday0)/(ODneg control−mean ODday0)
(§4) For GI50 determination, plot a dose-response curve between the compound concentration and percent of growth inhibition. GI50 values can be derived by fitting dose-response curves using sigmoidal dose response equation.

[2] = system: BT-549
Text: as §1, §2, §3, §4

[3] = system: Du-145
Text: as §1, §2, §3, §4

[4] = system: HCT-116
Text: as §1, §2, §3, §4

[5] = system: HCT-15
Text: as §1, §2, §3, §4

[6] = system: Hs-578
Text: as §1, §2, §3, §4

[7] = system: NCI-H23
Text: as §1, §2, §3, §4

[8] = system: PC3
Text: as §1, §2, §3, §4

| Structure (SMILES) | GI50 ([1]; Homo sapiens, A549, 120 h) [nM] | GI50 ([2]; Homo sapiens, BT-549, 120 h) [nM] | GI50 ([3]; Homo sapiens, DU-145, 120 h) [nM] | GI50 ([4]; Homo sapiens, HCT-116, 120 h) [nM] | GI50 ([5]; Homo sapiens, HCT-15, 120 h) [nM] | GI50 ([7]; Homo sapiens, NCI-H23, 120 h) [nM] | GI50 ([8]; Homo sapiens, PC-3, 120 h) [nM] | GI50 ([6]; Hs578, 120 h) [nM] | GI50 [1] [nM] | GI50 [4] [nM] | GI50 [6] [nM] | GI50 [8] [nM] | GI50 [2] [nM] | GI50 [3] [nM] | GI50 [5] [nM] | GI50 [7] [nM] |
| --- | --- | --- | --- | --- | --- | --- | --- | --- | --- | --- | --- | --- | --- | --- | --- | --- |
| COc1nc(N)nc2c1ncn2CCOCP(=O)(N[C@@H](C)C(=O)OC(C)C)N[C@@H](C)C(=O)OC(C)C [Example 29] | 387 | 1110 | 29 | 988 | > 10000 | 32 | 325 | 378 | – | – | – | – | – | – | – | – |
| CCCCOC(=O)[C@H](C)NP(=O)(COCCn1cnc2c(OCCC)nc(N)nc21)Oc1ccccc1 (single isomer, unassigned) [Example 52a] | – | 105 | 0.3 | – | 553 | 0.9 | – | – | 48 | 43 | 13 | 8 | – | – | – | – |
| CCCCOC(=O)[C@H](C)NP(=O)(COCCn1cnc2c(OC(C)C)nc(N)nc21)N[C@@H](C)C(=O)OCCCC [Example 34] | 41 | 195 | 4 | 55 | 2650 | 5 | 21 | 31 | – | – | – | – | – | – | – | – |
| CCCOc1nc(N)nc2c1ncn2CCOCP(=O)(N[C@@H](C)C(=O)OCC)N[C@@H](C)C(=O)OCC [Example 14] | 381 | 266 | 28 | 488 | > 10000 | 29 | 275 | 202 | – | – | – | – | – | – | – | – |
| CC(C)Oc1nc(N)nc2c1ncn2CCOCP(=O)(O)O [Example 3, [2-(2-Amino-6-isopropoxy-purin-9-yl)-ethoxymethyl]-phosphonic acid] | 2980 | 2480 | 177 | 2440 | 2530 | 551 | 1380 | 2450 | – | – | – | – | – | – | – | – |
| CCCOc1nc(N)nc2c1ncn2CCOCP(=O)(N[C@@H](C)C(=O)OCC)Oc1ccccc1 (single isomer, unassigned) [Example 53b] | – | – | – | – | – | – | – | – | 647 | 329 | 177 | 180 | 564 | 14 | 2040 | 70 |
| CCOC(=O)[C@H](C)NP(=O)(COCCn1cnc2c(OCC)nc(N)nc21)N[C@@H](C)C(=O)OCC [Example 37] | 458 | 292 | 23 | 509 | > 10000 | 31 | 146 | 198 | – | – | – | – | – | – | – | – |

More lines, main results first:

| GI50 ([1]; Homo sapiens, A549, 120 h) [nM] | GI50 ([2]; Homo sapiens, BT-549, 120 h) [nM] | GI50 ([3]; Homo sapiens, DU-145, 120 h) [nM] | GI50 ([4]; Homo sapiens, HCT-116, 120 h) [nM] | GI50 ([5]; Homo sapiens, HCT-15, 120 h) [nM] | GI50 ([7]; Homo sapiens, NCI-H23, 120 h) [nM] | GI50 ([8]; Homo sapiens, PC-3, 120 h) [nM] | Structure (SMILES) | GI50 ([6]; Hs578, 120 h) [nM] | GI50 [1] [nM] | GI50 [4] [nM] | GI50 [6] [nM] | GI50 [8] [nM] | GI50 [2] [nM] | GI50 [3] [nM] | GI50 [5] [nM] | GI50 [7] [nM] |
| --- | --- | --- | --- | --- | --- | --- | --- | --- | --- | --- | --- | --- | --- | --- | --- | --- |
| 3700 | 1620 | 250 | 3070 | > 10000 | 118 | 608 | CCOC(=O)[C@@H]1CCCN1P(=O)(COCCn1cnc2c(NC3CC3)nc(N)nc21)N1CCC[C@H]1C(=O)OCC [Example 50] | 308 | – | – | – | – | – | – | – | – |
| 1670 | 527 | 256 | 850 | 8500 | 263 | 214 | Nc1nc(NC2CC2)c2ncn(CCOCP(=O)(N3CCC[C@H]3C(=O)OCc3ccccc3)N3CCC[C@H]3C(=O)OCc3ccccc3)c2n1 [Example 51] | 96 | – | – | – | – | – | – | – | – |
| 195 | 301 | 1 | 133 | 6400 | 11 | 10 | CCCCCOc1nc(N)nc2c1ncn2CCOCP(=O)(N[C@@H](C)C(=O)OCC)N[C@@H](C)C(=O)OCC [Example 41] | 62 | – | – | – | – | – | – | – | – |
